Assay results published in patent US20030220524A1, “Sulfur containing compounds” (priority 2000, published 2003).
“And” between values parts separate entries of the source, which are not always exact repeats. Identical values can stand only once. Like-named read-outs stand apart in the source and are kept apart here. One block for each compound: values may come before it.

Experiments:
Aspergillus niger [1] = assay: Antifungal paper disk test, diameter of clear zone; assay type: cell-based; settings: 0.25 μg/disk; Appl'n Solvent DMSO
Aspergillus niger [2] = assay: Antifungal paper disk test, diameter of clear zone; assay type: cell-based; settings: for zone of inhibition at 100 µg/disc: 100 μg/disk, read-out: Diameter (mm) of clear Zone A. niger
Description: (§1) Sulfur compounds were tested for antifungal activity against pure cultures of Aspergillus niger and Aspergillus flavus supplied by Ward's Natural Science Ltd (St. Catharines, Ontario, Canada). They were maintained on Sabouraud Dextrose Agar.
(§2) For the test, 6 agar plugs (5 mm diameter) were cut from a 5-8 day old colony and homogenized in distilled, sterilized water (2 ml). A portion of this suspension (0.5 ml) was transferred aseptically to a Petri plate with Sabouraud Dextrose Agar (15 ml) and spread evenly over the entire surface. […] Each test compound was applied to the disks as a solution (50 mg compound/10 ml acetone). Control disks were treated with neat acetone (20 μl). Test plates with fungal homogenates and disks were incubated at 18-20° C. for 2 days. For each test four replicate plates were used. The diameter of the clear zone surrounding the disk was taken as the indicator of antifungal activity.

Aspergillus flavus [3] = assay: Antifungal paper disk test, diameter of clear zone; assay type: cell-based; settings: for zone of inhibition at 100 µg/disc: 100 μg/disk, read-out: Diameter (mm) of clear Zone A. flavus
Description: as §1, §2

Aspergillus flavus [4] = assay: Antifungal paper disk test, diameter of clear zone; assay type: cell-based; settings: 0.25 μg/disk; Appl'n Solvent DMSO
[5] = tested on: Aspergillus niger and Aspergillus flavus; assay: Antifungal activity; assay type: cell-based; settings: in words; dose not given
Description: as §1
For the test, 6 agar plugs (5 mm diameter) were cut from a 5-8 day old colony and homogenized in distilled, sterilized water (2 ml). A portion of this suspension (0.5 ml) was transferred aseptically to a Petri plate with Sabouraud Dextrose Agar (15 ml) and spread evenly over the entire surface. Each plate was supplied with four evenly spaced paper disks (7 mm, Whatman Number 1 filter paper) containing the test compound (0, 25, 50 and 100 μg respectively). Each test compound was applied to the disks as a solution (50 mg compound/10 ml acetone). Control disks were treated with neat acetone (20 μl). Test plates with fungal homogenates and disks were incubated at 18-20° C. for 2 days. For each test four replicate plates were used. The diameter of the clear zone surrounding the disk was taken as the indicator of antifungal activity.

AML-3 leukemic cell line [6] = assay: Fixed propidium iodide staining, flow cytometry; assay type: cell-based, human; settings: dose 129.6 uM (ug/mL), 48 h
Description: (§3) Adherent cell lines were plated at 35×10^4 cells/60 cm^2 dish the day before exposure to compound. Suspension cells were seeded at 25×10^4 cells/mL in a 6 well dish (Falcon) the day of exposure to compound. Mononucleated, T-cell depleted normal bone marrow cells were seeded at 50×10^4 cells/mL in a 6 well dish the day of exposure to compound. Cells were exposed to solvent control or approximate MTT50 and MTT30 concentrations of the compound. After 48 h of exposure to the compound, cells were harvested, fixed in 80% ethanol for 1 h on ice and labeled with 50 μg/mL propidium iodide (Sigma). Approximately 10^6 cells were analyzed using a XL-MCL flow cytometer (Coulter Corporation, Miami, Fla.) and a FACScalibar cytometer (Becton Dickinson, San Jose, Calif.). Profiles shown are a representative.
as §3, with “cm2” for “cm^2”, “concentrations.” for “concentrations of the compound.”, “representative. Cell viability counts and Pi staining were performed as previously described (Dimitroulakos, J, Nohynek, D, Backway, K L, Hedley, D W, Yeger, H, Freedman, M H, Minden, M D and Penn, L Z: Increased sensitivity of acute myeloid leukemias to lovastatin-induced apoptosis: A potential therapeutic approach. Blood 93: 1308-18, 1999).” for “representative.”

KK leukemic cell line [7] = assay: Fixed propidium iodide staining, flow cytometry; assay type: cell-based, human; settings: dose 129.6 uM (ug/mL), 48 h
Description: as §3
as §3, with “cm2” for “cm^2”, “concentrations.” for “concentrations of the compound.”, “representative. Cell viability counts and Pi staining were performed as previously described (Dimitroulakos, J, Nohynek, D, Backway, K L, Hedley, D W, Yeger, H, Freedman, M H, Minden, M D and Penn, L Z: Increased sensitivity of acute myeloid leukemias to lovastatin-induced apoptosis: A potential therapeutic approach. Blood 93: 1308-18, 1999).” for “representative.”

AML-3 leukemic cell line [8] = assay: MTT assay; assay type: cell-based, human
Description: (§4) All cell lines were assayed as asynchronously growing cells. Leukemic cell lines, OCI-AML-2, OCI-AML-3 (referred to hereafter as AML-2 and AML-3, respectively), NB-4, KK, B1, G2, and W1 were cultured in alpha-minimal essential medium (α-MEM) (Princess Margaret Hospital Media Services) supplemented with 10% fetal bovine serum (FBS) (Sigma, St. Louis, Mo.). Non-transformed, diploid fibroblast lines WI38 and IMR90, were cultured in α-MEM and MEM F-15, respectively supplemented with 10% FBS. Media for IMR90 cells was also supplemented with 1.5 g/L bicarbonate and 1 mM pyruvate. Breast tumour cell lines, MDA-231, SK-BR-3, MCF-7, ZR-751, and melanoma tumour cell lines, WM9, WM983, WM793, 1232, were grown in α-MEM supplemented with 10% fetal bovine serum. Prostate tumour cell lines, DU145 and PC-3, were grown in RPMI 1640 media supplemented with 10% FBS. All cell lines were cultured in the presence of penicillin/streptomycin. Mononucleated cells were isolated from normal bone marrow using Ficoll hypaque and then T-cell depleted. T-cell depletion was performed by incubating the mononucleated bone marrow cells in α-MEM at a concentration of 2×10^7 cells/mL with 10% absor FBS and 10% (v/v) sheep red blood cells for 4 to 16 h. Absor FBS was prepared beforehand by heating FBS at 56° C. for 1 h, incubating with sheep red blood cells at 0.5% (v/v) for 1 h and then filtering the FBS with a […]. The T-cell depleted, mononucleated cells were recovered using Ficoll hypaque and were maintained in α-MEM supplemented with 20% FBS and 10% 5637 ? nditioned media. 5637 conditioned media ? s previously harvested from confluent 5637 cells after a 3 day incubation. Normal bone marrow from bone marrow transplant donor was collected following informed consent according to institutional guidelines.
(§5) Approximately 20 mg of each compound was dissolved in 5 mL of ACS grade acetone (Sigma) using a 5 mL volumetric flask. Stock solutions of the compounds were stored in the dark at −20° C. Compounds were diluted prior to each experiment.
(§6) Adherent cells were seeded at 67×10^3 cells/mL in a 96 well plate (Falcon, Mississauga, Ontario) the day prior to exposure to compound. Suspension cells were seeded at 27×10^4 cells/mL in a 96 well plate the day of exposure to compound. Mononucleated, T-cell depleted normal bone marrow cells were seeded at 67×10^4 cells/mL in a 96 well plate the day of exposure to compound. Compounds and solvent control were added to cells and assayed in triplicate or sextuplet. Following 48 h of incubation at 37° C. with 5% CO2, 40 μL of a 5 mg/mL solution of 3-[4,5-dimethylthiazol-2-yl]-2,5-diphenyltetrazolium bromide (MTT) substrate (Sigma) in Dulbecco's phosphate-buffered saline (D-PBS) was added. After 4 h of incubation at 37° C. with 5% CO2, the resulting violet formazan precipitate was solubilized by the addition of 80 μL of a 0.01 M HCI, 10% sodium dodecyl sulfate (SDS; Sigma) solution overnight at 37° C. with 5% CO2. The plates were then analyzed using the BioRad Benchmark Microplate Reader (BioRad Laboratories, Hercules, Calif.) at 570 nm to determine the optical density of the samples. MTT data was analyzed using Prism 3.0 (GraphPad Software, Inc., San Diego, Calif.) by the Chou-Talalay method. MTT graphs shown are a representative experiment.
(§7) Adherent cells were seeded at 67×10^3 cells/mL in a 96 well plate (Falcon, Mississauga, Ontario) the day prior to exposure to compound. Suspension cells were seeded at 27×10^4 cells/mL in a 96 well plate the day of exposure to compound. Mononucleated, T-cell depleted normal bone marrow cells were seeded at 67×10^4 cells/mL in a 96 well plate the day of exposure to compound. Compounds and solvent control were added to cells and assayed in triplicate or sextuplet. […]

[9] = tested on: WI38 non-transformed diploid fibroblasts; assay: MTT assay; assay type: cell-based, human; settings: for IC50: WI38 (normal), 48 h, read-out: MTT50
Description: as §4, §5, §6, §7

KK leukemic cell line [10] = assay: MTT assay; assay type: cell-based, human; settings: KK, 48 h, read-out: MTT50
Description: as §4, §5, §6, §7

[11] = tested on: Normal bone marrow (mononucleated, T-cell depleted); assay: MTT assay; assay type: cell-based; settings: Normal bone marrow, 48 h, read-out: MTT50
Description: as §4, §5, §6, §7

G2 leukemic cell line = assay: MTT assay; assay type: cell-based, human; settings: 48 h, read-out: MTT50
Description: as §4, §5, §6, §7

B1 leukemic cell line = assay: MTT assay; assay type: cell-based, human; settings: B1, 48 h, read-out: MTT50
Description: as §4, §5, §6, §7

NB-4 leukemic cell line = assay: MTT assay; assay type: cell-based, human; settings: NB-4, 48 h, read-out: MTT50
Description: as §4, §5, §6, §7

W1 leukemic cell line = assay: MTT assay; assay type: cell-based, human; settings: 48 h, read-out: MTT50
Description: as §4, §5, §6, §7

[12] = tested on: Aspergillus niger and Aspergillus flavus; assay: Antifungal activity; assay type: cell-based; settings: in words; 10 μg/disk
[13] = 0.25 μg/disk, Appl'n Solvent Acetone
[14] = Homo sapiens, AML3, 48 h, AML-3, read-out: MTT50

SMILES: CCC(=O)OCSSCOC(=O)CC [(C2H5C(O)OCH2S)2, 2,3-dithiabutane-1,4-dipropionate]
- Diameter (mm) of clear Zone A. niger (Aspergillus niger [1]): 8.0 mm
- Diameter (mm) of clear Zone A. niger (Aspergillus niger [2]; [13]): 3.6 mm
- Diameter (mm) of clear Zone A. flavus (Aspergillus flavus [3]; [13]): 6.7 mm
- Diameter (mm) of clear Zone A. flavus (Aspergillus flavus [4]): 6.1 mm

SMILES: C[C@@H]1[C@H](O)[C@@H](C)/C=C/C=C/C=C/C=C/C=C/C=C/C=C/[C@H](O[C@@H]2O[C@H](C)[C@@H](O)[C@H](N)[C@@H]2O)C[C@@H]2O[C@](O)(C[C@@H](O)C[C@@H](O)[C@H](O)CC[C@@H](O)C[C@@H](O)CC(=O)O[C@H]1C)C[C@H](O)[C@H]2C(=O)O [Amphotericin B, reference compound]
- Diameter (mm) of clear Zone A. niger (Aspergillus niger [1]): 4.2 mm
- Antifungal activity [5]: most potent of the 3 commercial antifungals tested
- Diameter (mm) of clear Zone A. flavus (Aspergillus flavus [4]): 4.1 mm

SMILES: CS(=O)(=O)Sc1ccccc1 [L, Phenyl Methanethiosulfonate]
- IC50 (AML-3 leukemic cell line [8]; AML-3, 48 h, read-out: MTT50): 7.46 µM
- IC50 (G2 leukemic cell line): 3.8 µM
- IC50 (W1 leukemic cell line): 7.26 µM
- IC50 (KK leukemic cell line [10]): 6.3 µM
- IC50 (B1 leukemic cell line): 6.34 µM
- Diameter (mm) of clear Zone A. niger (Aspergillus niger [2]; 25 μg/disk, acetone): 0 mm
- Diameter (mm) of clear Zone A. flavus (Aspergillus flavus [3]; 25 μg/disk, acetone): 3.7 mm
- IC50 [11]: 44.2 µM

SMILES: CSSc1ccccc1[N+](=O)[O-] [o-O2N(C6H4)SSCH3, methyl o-nitrophenyl disulphide]
- Antifungal activity / fungitoxicity [12]: pronounced toxicity
- zone of inhibition at 10 µg/disc (Aspergillus niger [2]; Aspergillus niger, 10 μg/disk, acetone): 2.8 mm
- zone of inhibition at 10 µg/disc (Aspergillus flavus [3]; Aspergillus flavus, 10 μg/disk, acetone): 1.9 mm

Second part, led by results:

- melting point: 34.8 to 35.3 °C
SMILES: CSSCCCS(C)(=O)=O [CH3SO2CH2CH2CH2SSCH3, 2,3,7-trithiaoctane 7,7-dioxide]
- zone of inhibition at 100 µg/disc (Aspergillus niger [2]; Aspergillus niger, acetone): 0 mm
- zone of inhibition at 100 µg/disc (Aspergillus flavus [3]; Aspergillus flavus, acetone): 0 mm

- IC50 (AML-3 leukemic cell line [8]; [14]): > 162 µM
- IC50 (KK leukemic cell line [10]; Homo sapiens): > 162 µM
SMILES: CSCSCSC [J, 2,4,6-trithiaheptane]
- % pre-G1 (Fixed PI) (AML-3 leukemic cell line [6]): 0.2%
- % pre-G1 (Fixed PI) (KK leukemic cell line [7]): 2.6%
- IC50 ([9]; Homo sapiens, WI-38, 48 h): > 162 µM
- Viability of non-transformed human WI38 fibroblasts following exposure ([9]; in words): not affected
- Antifungal activity [5]: do not possess antiproliferative activity on either fungal or mammalian cells
- zone of inhibition at 100 µg/disc (Aspergillus niger [2]; Aspergillus niger, acetone): 0 mm
- zone of inhibition at 100 µg/disc (Aspergillus flavus [3]; Aspergillus flavus, acetone): 0 mm
- IC50 ([11]; T-cell): > 162 µM

- IC50 (AML-3 leukemic cell line [8]; AML-3, 48 h, read-out: MTT50): 4.6 µM
- IC50 (G2 leukemic cell line): 6.61 µM and 5.8 µM
- IC50 (KK leukemic cell line [10]): 6.6 µM
- IC50 (B1 leukemic cell line): 6.07 µM
- IC50 (NB-4 leukemic cell line): 6.36 µM and 7.8 µM
SMILES: CCCCCSSCS(C)(=O)=O [K]
- IC50 [9]: 19 µM
- IC50 [11]: 22 µM

- IC50 (AML-3 leukemic cell line [8]; AML-3, 48 h, read-out: MTT50): 44.1 µM
- IC50 (AML-3 leukemic cell line [8]; [14]): 55.8 µM
- IC50 (KK leukemic cell line [10]; Homo sapiens): 96.9 µM
- IC50 (B1 leukemic cell line; Homo sapiens): 57.4 µM
- IC50 (NB-4 leukemic cell line; Homo sapiens): 62.9 µM
SMILES: COC(=O)CSSCC(=O)OC [O, dimethyl 3,4-dithiaadipate]
- IC50 ([9]; Homo sapiens, WI-38, 48 h): 73.9 µM
- zone of inhibition at 100 µg/disc (Aspergillus niger [2]; Aspergillus niger, acetone): 0 mm
- zone of inhibition at 100 µg/disc (Aspergillus flavus [3]; Aspergillus flavus, acetone): 0 mm
- IC50 ([11]; T-cell): > 100 µM
